How the values were obtained:
Format in all cases: in vivo
CT26 colon cancer tumor [1] = test: Chemotherapy sensitization in mouse colon cancer subcutaneous tumor model (Example 1); conditions: CT26 tumor-bearing BALB/c mice, compared with control group; intratumoral 25 μL, CpG-ODN 15 μg per mouse; oxaliplatin 3 mg/kg i.v. days 7, 10, 13, 16
Text: The sodium alginate hydrogel radiotherapy/chemotherapy sensitizing agent encapsulating the immunoadjuvant CpG-ODN was used for chemotherapy sensitization in a mouse colon cancer subcutaneous tumor model. The treatment was started on day 7 after inoculation of the mouse CT26 colon cancer tumor. Tumor-bearing BALB/c mice were randomly divided into the following 4 groups (6 mice in each group): Group 1: control group (untreated); Group 2: intratumoral injection of sodium alginate and intravenous injection of oxaliplatin (ALG+OxPt);
Group 3: intratumoral injection of sodium alginate hydrogel radiotherapy/chemotherapy sensitizing agent encapsulating the immunoadjuvant CpG-ODN (ALG/CpG); Group 4: intratumoral injection of sodium alginate hydrogel radiotherapy/chemotherapy sensitizing agent encapsulating the immunoadjuvant CpG-ODN, and intravenous injection of oxaliplatin (ALG/CpG+OxPt). The final concentration of sodium alginate in each treatment group was 10 mg/mL, the volume of intratumoral injection was 25 μL, and the dose of CpG-ODN per mouse was 15 μg. On days 7, 10, 13 and 16, oxaliplatin was administered intravenously at a dose of 3 mg/kg body weight. After respective treatments for the mice, the tumor growth was measured.

CT26 colon cancer tumor [2] = test: Chemotherapy sensitization with smart hydrogel in colon cancer subcutaneous tumor mouse model (Example 3); conditions: CT26 tumor-bearing BALB/c mice, compared with control group; CpG-ODN 15 μg per mouse intratumoral; oxaliplatin 3 mg/kg i.v. days 7, 10, 13, 16
Experimental: The mice were treated on day 7 after the inoculation of CT26 colon cancer tumor. Tumor-bearing BALB/c mice were randomly divided into the following 6 groups (6 mice in each group): Group 1: control group (untreated); Group 2: intratumoral injection of sodium alginate and intravenous injection of oxaliplatin (ALG+OxPt); Group 3: intratumoral injection of mixture of sodium alginate with CpG-ODN (ALG/CpG); Group 4: intratumoral injection of mixture of sodium alginate and CpG-ODN and intravenous injection of oxaliplatin (ALG/CpG+OxPt); Group 5: intratumoral injection of smart sodium alginate hydrogel preparation (ALG-Aapt/CpG) capable of ATP-responsive slow release of immunoadjuvant obtained in Step (5) of Example 2; Group 6: intratumoral injection of smart sodium alginate hydrogel preparation capable of ATP-responsive slow release of immunoadjuvant obtained in Step (5) of Example 2, and intravenous injection of oxaliplatin (ALG-Aapt/CpG+OxPt). The final concentration of sodium alginate in each treatment group was 10 mg/mL, the volume of intratumoral injection was 25 μL, and the dose of CpG-ODN per mouse was 15 μg. On days 7, 10, 13 and 16, oxaliplatin was administered intravenously at a dose of 3 mg/kg body weight. After respective treatments for the mice, the tumor growth was measured.

CT26 colon cancer tumor [3] = test: Immune response evaluation in chemotherapy sensitization, colon cancer subcutaneous tumor mouse model (Example 4); conditions: day 5 after treatment, CT26 BALB/c mice, compared with control group
Experimental: The mice were treated on day 7 after the inoculation of CT26 colon cancer tumor. Tumor-bearing BALB/c mice were randomly divided into the following 4 groups (6 mice in each group): Group 1: control group (untreated); Group 2: intratumoral injection of sodium alginate and intravenous injection of oxaliplatin (OxPt); Group 3: intratumoral injection of smart sodium alginate hydrogel preparation (ALG-A-Apt/CpG) capable of ATP-responsive slow release of immunoadjuvant obtained in Step (5) of Example 2; Group 4: intratumoral injection of smart sodium alginate hydrogel preparation capable of ATP-responsive slow release of immunoadjuvant obtained in Step (5) of Example 2 and intravenous injection of oxaliplatin (ALG-A-Apt/CpG@OxPt). The final concentration of sodium alginate in each treatment group was 10 mg/mL, the volume of intratumoral injection was 25 μL, and the dose of CpG-ODN per mouse was 15 μg. On days 7, 10, 13 and 16, oxaliplatin was administered intravenously at a dose of 3 mg/kg body weight. On day 5 after the treatment, mice in each group were sacrificed, and the maturity of dendritic cells in inguinal lymph nodes, percentage of CD8 positive T cells in the tumor, and ratio of CD8 positive T cells to regulatory T cells was identified.

With oxaliplatin [ALG+OxPt] the tumor growth (CT26 colon cancer tumor [1]) was “significantly inhibited”, the tumor growth (CT26 colon cancer tumor [2]) was “only partially inhibited” and the “percentage of CD8 positive T cells in the tumor” value (CT26 colon cancer tumor [3]) was “not significantly improved”. For the same substance, the “ratio of CD8 positive T cells to regulatory T cells” value (CT26 colon cancer tumor [3]) was “not significantly improved” and the “maturity of dendritic cells (DC) in lymph nodes” value (CT26 colon cancer tumor [3]; inguinal lymph nodes) was “not significantly improved”.

Reference: US20240148874A1, “IMMUNOADJUVANT-BASED HYDROGEL COMPOSITION AND USE THEREOF” (SOOCHOW UNIVERSITY, priority 2020, published 2024)
